Measurements from ChEMBL document CHEMBL3745703, “Preclinical characterization of substituted 6,7-dihydro-[1,2,4]triazolo[4,3-a]pyrazin-8(5H)-one P2X7 receptor antagonists” (Bioorg Med Chem Lett, 2016).
pIC50: −log10 of the molar value. Converted amounts (≈) assume the structure as drawn.

Columns and labels:
[1] = Extraction ratio in human liver microsomes at 1 uM; format: ADME; details: read-out: ERH
[2] = Selectivity ratio of IC50 for rat P2X7 receptor to IC50 for human P2X7 receptor
P2X purinoceptor 7 [3] = target: T1, P2X purinoceptor 7 (Homo sapiens, UniProt Q99572); test: Antagonist activity at human P2X7 receptor expressed in 1321N1 cells assessed as inhibition of Bz-ATP-induced Ca2+ flux after 30 mins by FLIPR assay; format: cell-based
T1 sequence (Q99572 whole entry): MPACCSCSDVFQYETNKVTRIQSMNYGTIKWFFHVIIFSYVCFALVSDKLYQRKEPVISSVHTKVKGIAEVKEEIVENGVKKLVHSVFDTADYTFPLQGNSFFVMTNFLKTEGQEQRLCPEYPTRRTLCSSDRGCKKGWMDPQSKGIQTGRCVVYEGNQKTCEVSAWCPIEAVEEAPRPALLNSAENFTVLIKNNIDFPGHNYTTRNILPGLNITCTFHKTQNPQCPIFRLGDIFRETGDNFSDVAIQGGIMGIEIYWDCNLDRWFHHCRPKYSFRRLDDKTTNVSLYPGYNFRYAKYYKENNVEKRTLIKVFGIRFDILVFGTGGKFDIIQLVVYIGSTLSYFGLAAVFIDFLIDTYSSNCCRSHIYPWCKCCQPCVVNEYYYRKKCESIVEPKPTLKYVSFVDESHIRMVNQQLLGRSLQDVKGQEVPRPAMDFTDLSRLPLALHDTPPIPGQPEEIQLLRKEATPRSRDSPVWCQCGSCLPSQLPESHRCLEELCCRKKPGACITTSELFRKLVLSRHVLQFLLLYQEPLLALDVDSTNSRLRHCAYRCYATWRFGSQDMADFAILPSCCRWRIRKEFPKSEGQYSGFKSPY

P2X purinoceptor 7 [4] = target: T2, P2X purinoceptor 7 (Rattus norvegicus, UniProt Q64663); test: Antagonist activity at rat P2X7 receptor expressed in 1321N1 cells assessed as inhibition of Bz-ATP-induced Ca2+ flux after 30 mins by FLIPR assay; format: cell-based
T2 sequence (Q64663 whole entry): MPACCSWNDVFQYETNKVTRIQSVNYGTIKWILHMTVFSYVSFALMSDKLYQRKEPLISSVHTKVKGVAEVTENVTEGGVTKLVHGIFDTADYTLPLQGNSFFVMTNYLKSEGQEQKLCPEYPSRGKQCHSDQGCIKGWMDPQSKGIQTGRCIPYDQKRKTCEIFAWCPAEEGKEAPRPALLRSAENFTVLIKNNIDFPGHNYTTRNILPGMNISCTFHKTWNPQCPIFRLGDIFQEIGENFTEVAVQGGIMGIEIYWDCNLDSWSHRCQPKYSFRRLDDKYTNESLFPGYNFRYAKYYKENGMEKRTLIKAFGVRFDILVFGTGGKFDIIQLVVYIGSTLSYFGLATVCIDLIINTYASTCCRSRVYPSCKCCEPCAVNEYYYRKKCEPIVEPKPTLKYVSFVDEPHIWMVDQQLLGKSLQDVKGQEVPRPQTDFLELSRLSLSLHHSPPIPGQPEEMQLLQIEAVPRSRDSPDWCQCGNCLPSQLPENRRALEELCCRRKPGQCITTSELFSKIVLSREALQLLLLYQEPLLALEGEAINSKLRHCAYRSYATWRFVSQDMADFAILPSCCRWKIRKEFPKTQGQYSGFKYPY

[5] = Extraction ratio in rat liver microsomes at 1 uM; format: ADME; details: read-out: ERH
[6] = Plasma protein binding in human at 1 uM; format: ADME, cell-free; details: read-out: PPB (converted)
[7] = Plasma protein binding in rat at 1 uM; format: ADME, cell-free; details: read-out: PPB (converted)
[8] = Aqueous equilibrium solubility of the compound at pH 2; format: physicochemical
[9] = Aqueous equilibrium solubility of the compound at pH 7; format: physicochemical
[10] = Apparent permeability from apical to basolateral side in human Caco2 cells; format: ADME, cell-based; details: Caco-2
[11] = Apparent permeability from basolateral to apical side in human Caco2 cells; format: ADME, cell-based; details: Caco-2
[12] = Volume of distribution at steady state in rat at 1 mg/kg, iv and 5 mg/kg, po; format: ADME, organism-based; details: in vivo, read-out: Vdss
[13] = Clearance in rat at 1 mg/kg, iv and 5 mg/kg, po; format: ADME, organism-based; details: in vivo
[14] = Half life in rat at 1 mg/kg, iv and 5 mg/kg, po; format: ADME, organism-based; details: in vivo
[15] = Oral bioavailability in rat at 5 mg/kg; format: ADME, organism-based; details: in vivo
Brain = test: Drug uptake in Sprague-Dawley rat brain at 10 mg/kg, po at Tmax; format: ADME, organism-based; details: in vivo
[16] = Plasma concentration in Sprague-Dawley rat at 10 mg/kg, po at Tmax; format: ADME, organism-based
Rattus norvegicus [17] = species on record: Rattus norvegicus; test: Ex vivo receptor occupancy at P2X7 receptor in Sprague-Dawley rat hippocampus assessed as inhibition of [3H] A-804598 binding at Tmax by autoradiography; format: functional
[18] = Efflux ratio of apparent permeability from basolateral to apical side over apical to basolateral side in human Caco2 cells; format: ADME, cell-based; details: Caco-2
[19] = Ratio of drug level in brain to plasma in Sprague-Dawley rat at 10 mg/kg, po; format: ADME, organism-based; details: read-out: BPR
Rattus norvegicus [20] = test: Ex vivo receptor occupancy at P2X7 receptor in po dosed Sprague-Dawley rat hippocampus assessed as inhibition of [3H]JNJ-54232334 binding after 30 mins; format: functional
[21] = Brain protein binding in Sprague-Dawley rat at 10 mg/kg, po; format: ADME, organism-based; details: read-out: PB (converted)
[22] = Plasma protein binding in Sprague-Dawley rat at 10 mg/kg, po; format: ADME, organism-based; details: read-out: PPB (converted)
[23] = target: Voltage-gated inwardly rectifying potassium channel KCNH2 (Homo sapiens, UniProt Q12809); test: Displacement of dofetilide from human ERG channel
Chain of Voltage-gated inwardly rectifying potassium channel KCNH2 (Q12809 whole entry): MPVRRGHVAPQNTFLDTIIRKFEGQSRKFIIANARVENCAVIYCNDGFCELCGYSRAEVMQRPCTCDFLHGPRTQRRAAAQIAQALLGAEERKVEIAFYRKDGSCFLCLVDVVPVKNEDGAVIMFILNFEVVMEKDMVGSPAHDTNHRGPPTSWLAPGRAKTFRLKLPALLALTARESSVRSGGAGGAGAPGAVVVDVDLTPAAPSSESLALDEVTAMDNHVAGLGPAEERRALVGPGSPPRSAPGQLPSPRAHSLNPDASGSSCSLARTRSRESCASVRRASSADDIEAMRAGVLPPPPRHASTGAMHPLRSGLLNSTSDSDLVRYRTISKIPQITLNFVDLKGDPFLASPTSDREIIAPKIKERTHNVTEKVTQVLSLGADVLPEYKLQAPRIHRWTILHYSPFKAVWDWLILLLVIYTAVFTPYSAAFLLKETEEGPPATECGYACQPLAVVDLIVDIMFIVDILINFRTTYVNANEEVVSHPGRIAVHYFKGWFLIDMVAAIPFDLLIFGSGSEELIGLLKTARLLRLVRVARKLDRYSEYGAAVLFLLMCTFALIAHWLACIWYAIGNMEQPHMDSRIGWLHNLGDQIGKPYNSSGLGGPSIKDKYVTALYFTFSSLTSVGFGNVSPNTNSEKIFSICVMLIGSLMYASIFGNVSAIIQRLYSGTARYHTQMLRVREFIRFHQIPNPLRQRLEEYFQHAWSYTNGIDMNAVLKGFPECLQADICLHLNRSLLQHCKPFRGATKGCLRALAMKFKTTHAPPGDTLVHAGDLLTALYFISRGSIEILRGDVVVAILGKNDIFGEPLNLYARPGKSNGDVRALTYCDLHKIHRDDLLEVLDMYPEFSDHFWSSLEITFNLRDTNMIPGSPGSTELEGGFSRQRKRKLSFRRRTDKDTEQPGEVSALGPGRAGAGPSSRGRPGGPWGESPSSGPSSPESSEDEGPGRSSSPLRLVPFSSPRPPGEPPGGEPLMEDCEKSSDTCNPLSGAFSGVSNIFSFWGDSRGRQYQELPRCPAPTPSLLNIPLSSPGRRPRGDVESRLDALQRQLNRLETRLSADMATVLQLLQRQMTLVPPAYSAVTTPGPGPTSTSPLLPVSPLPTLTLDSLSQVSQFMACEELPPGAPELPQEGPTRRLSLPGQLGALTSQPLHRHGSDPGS

Cytochrome P450 2C19 = Cytochrome P450 2C19 (Homo sapiens, UniProt P33261); test: Inhibition of CYP2C19 (unknown origin); format: ADME
Chain of Cytochrome P450 2C19 (P33261 whole entry): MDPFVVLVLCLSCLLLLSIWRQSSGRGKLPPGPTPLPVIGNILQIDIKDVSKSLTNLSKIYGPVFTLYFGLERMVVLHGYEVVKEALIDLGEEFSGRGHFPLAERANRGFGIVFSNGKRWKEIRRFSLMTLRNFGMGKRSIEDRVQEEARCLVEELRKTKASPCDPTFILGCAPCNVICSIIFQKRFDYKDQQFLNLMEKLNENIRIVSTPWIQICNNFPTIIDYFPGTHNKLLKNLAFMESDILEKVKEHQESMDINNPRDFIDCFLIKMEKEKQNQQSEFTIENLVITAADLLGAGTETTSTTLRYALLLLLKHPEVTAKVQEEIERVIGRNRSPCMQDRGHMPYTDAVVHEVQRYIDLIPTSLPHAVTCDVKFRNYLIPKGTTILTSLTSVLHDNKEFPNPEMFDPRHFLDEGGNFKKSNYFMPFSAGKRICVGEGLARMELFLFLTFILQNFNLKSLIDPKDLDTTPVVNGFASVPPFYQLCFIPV

[24] = Inhibition of CYP450 (unknown origin); format: ADME, Homo sapiens
Rattus norvegicus [25] = species on record: Rattus norvegicus; test: animal or person; details: Sprague-Dawley, P2X7
Description: Ex vivo receptor occupancy at P2X7 receptor in po dosed Sprague-Dawley rat hippocampus assessed as inhibition of [3H]JNJ-54232334 binding by measuring brain level after 30 mins

Rattus norvegicus [26] = species on record: Rattus norvegicus; test: animal or person; details: Sprague-Dawley, P2X7, Plasma
Description: Ex vivo receptor occupancy at P2X7 receptor in po dosed Sprague-Dawley rat hippocampus assessed as inhibition of [3H]JNJ-54232334 binding by measuring plasma level after 30 mins

[27] = Unbound brain to plasma partition ratio in Sprague-Dawley rat at 0.8 mg/kg, po; details: read-out: K(p,uu,brain)

SMILES: C[C@H]1Cn2c(nnc2-c2cccnc2)C(=O)N1Cc1cccc(C(F)(F)F)c1Cl
- hepatic extraction ratio at 1 µM [1]: 0.3
- Ratio IC50 [2]: 100
- pIC50 (P2X purinoceptor 7 [3]): 8.72
- pIC50 (P2X purinoceptor 7 [4]): 7.06
- hepatic extraction ratio at 1 µM [5]: 0.3
- fraction unbound at 1 µM [6]: 0.22
- fraction unbound at 1 µM [7]: 0.17
- solubility thermodynamic [8]: > 400 µM
- solubility thermodynamic [9]: 375 µM (≈ 158 µg/mL)
- Papp A→B [10]: 6.2 ×10⁻⁶ cm/s
- Papp B→A [11]: 73 ×10⁻⁶ cm/s
- Vd [12]: 5 L/kg
- clearance [13]: 21 mL/min/kg
- half-life [14]: 2.8 h
- bioavailability [15]: 82%
- Drug uptake (Brain): 43 ng/mL
- Cmax [16]: 1060 ng/mL
- Occ (Rattus norvegicus [17]): 0%
- efflux ratio [18]: > 10

SMILES: C[C@H]1Cn2c(nnc2-c2cnccn2)C(=O)N1Cc1c(Cl)cccc1Cl
- pIC50 (P2X purinoceptor 7 [4]): 5.62

SMILES: O=C1c2nnn(-c3cnccn3)c2CCN1Cc1cccc(C(F)(F)F)c1Cl
- pIC50 (P2X purinoceptor 7 [3]): < 5.00
- pIC50 (P2X purinoceptor 7 [4]): < 5.00

SMILES: C[C@H]1Cn2c(nnc2-c2cc[nH]n2)C(=O)N1Cc1cccc(C(F)(F)F)c1Cl
- fraction unbound at 1 µM [6]: 0.08
- fraction unbound at 1 µM [7]: 0.1
- solubility thermodynamic [8]: 41 µM (≈ 16.8 µg/mL)
- solubility thermodynamic [9]: 95 µM (≈ 39 µg/mL)
- Papp A→B [10]: 5.4 ×10⁻⁶ cm/s
- Papp B→A [11]: 65 ×10⁻⁶ cm/s
- Vd [12]: 4.2 L/kg
- clearance [13]: 13 mL/min/kg
- half-life [14]: 3.9 h
- bioavailability [15]: 81%
- Drug uptake (Brain): 41 ng/mL
- Cmax [16]: 1310 ng/mL
- Occ (Rattus norvegicus [17]): 3%

SMILES: C[C@H]1Cn2c(nnc2-c2ncccn2)C(=O)N1Cc1cccc(C(F)(F)F)c1Cl
- fraction unbound at 1 µM [6]: 0.21
- fraction unbound at 1 µM [7]: 0.17
- solubility thermodynamic [8]: 176 µM (≈ 74.4 µg/mL)
- solubility thermodynamic [9]: 201 µM (≈ 85 µg/mL)
- Papp A→B [10]: 4.4 ×10⁻⁶ cm/s
- Papp B→A [11]: 64 ×10⁻⁶ cm/s
- Vd [12]: 3.3 L/kg
- clearance [13]: 11 mL/min/kg
- half-life [14]: 4.8 h
- bioavailability [15]: 80%
- Drug uptake (Brain): 116 ng/mL
- Cmax [16]: 2790 ng/mL
- Occ (Rattus norvegicus [17]): 41%

SMILES: C[C@H]1Cn2c(nnc2-c2ccccn2)C(=O)N1Cc1cccc(C(F)(F)F)c1Cl
- Ratio IC50 [2]: 100
- pIC50 (P2X purinoceptor 7 [3]): 9.30
- pIC50 (P2X purinoceptor 7 [4]): 6.46

SMILES: C[C@H]1Cn2c(nnc2-c2cnccn2)C(=O)N1Cc1cccc(C(F)(F)F)c1
- pIC50 (P2X purinoceptor 7 [3]): 8.44
- pIC50 (P2X purinoceptor 7 [4]): 5.38

SMILES: C[C@H]1Cn2c(nnc2-c2ccn(C)n2)C(=O)N1Cc1cccc(C(F)(F)F)c1Cl
- Ratio IC50 [2]: 100
- pIC50 (P2X purinoceptor 7 [3]): 8.38
- pIC50 (P2X purinoceptor 7 [4]): 6.02

SMILES: O=C1c2nnc(-c3cnccn3)n2CCN1Cc1cccc(C(F)(F)F)c1Cl
- pIC50 (P2X purinoceptor 7 [3]): 6.36
- pIC50 (P2X purinoceptor 7 [4]): 5.06

SMILES: C[C@H]1Cn2c(nnc2-c2ccc(F)cn2)C(=O)N1Cc1cccc(C(F)(F)F)c1Cl
- pIC50 (P2X purinoceptor 7 [3]): 9.15

SMILES: C[C@H]1Cn2c(nnc2-c2cnccn2)C(=O)N1Cc1cccc(C(F)(F)F)c1Cl
- fraction unbound at 1 µM [6]: 0.13
- fraction unbound at 1 µM [7]: 0.1
- solubility thermodynamic [8]: 89 µM (≈ 37.6 µg/mL)
- solubility thermodynamic [9]: 56 µM (≈ 23.7 µg/mL)
- Papp A→B [10]: 47 ×10⁻⁶ cm/s
- Papp B→A [11]: 50 ×10⁻⁶ cm/s
- Vd [12]: 1.5 L/kg
- clearance [13]: 19 mL/min/kg
- half-life [14]: 1 h
- bioavailability [15]: 125%
- Drug uptake (Brain): 672 ng/mL
- Cmax [16]: 945 ng/mL
- Occ (Rattus norvegicus [17]): 78%
- Kp [19]: 0.7
- ED50 (Rattus norvegicus [20]): 0.8 mg/kg
- Occ (Rattus norvegicus [20]): Dose-dependent effect
- fraction unbound [21]: 0.046
- fraction unbound [22]: 0.096
- pIC50 [23]: < 5.00
- pIC50 (Cytochrome P450 2C19): 5.14
- pIC50 [24]: < 5.00
- EC50 (Rattus norvegicus [25]): 0.066 µg/mL (≈ 0.156 µM)
- EC50 (Rattus norvegicus [26]): 0.062 µg/mL (≈ 0.147 µM)
- Kp uu [27]: 0.51

SMILES: C[C@H]1Cn2c(nnc2-c2cnccn2)C(=O)N1Cc1ccccc1Cl
- pIC50 (P2X purinoceptor 7 [4]): < 5.00
